In the experiment the target is T1, IRAK1 (Homo sapiens, UniProt P51617).
T1 construct: purchased Thermo Fisher Scientific (Life Technologies) SelectScreen
Kind of experiment: SelectScreen Adapta. In kind it is biochemical. The method in brief: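 Percent values come from Thermo SelectScreen profiling of NU5455, combining activity and binding assays. CSF1R was run in Z'LYTE format at Km app ATP, and CAMK1 in Adapta format with ATP listed at 10.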

T1 sequence (P51617 whole entry): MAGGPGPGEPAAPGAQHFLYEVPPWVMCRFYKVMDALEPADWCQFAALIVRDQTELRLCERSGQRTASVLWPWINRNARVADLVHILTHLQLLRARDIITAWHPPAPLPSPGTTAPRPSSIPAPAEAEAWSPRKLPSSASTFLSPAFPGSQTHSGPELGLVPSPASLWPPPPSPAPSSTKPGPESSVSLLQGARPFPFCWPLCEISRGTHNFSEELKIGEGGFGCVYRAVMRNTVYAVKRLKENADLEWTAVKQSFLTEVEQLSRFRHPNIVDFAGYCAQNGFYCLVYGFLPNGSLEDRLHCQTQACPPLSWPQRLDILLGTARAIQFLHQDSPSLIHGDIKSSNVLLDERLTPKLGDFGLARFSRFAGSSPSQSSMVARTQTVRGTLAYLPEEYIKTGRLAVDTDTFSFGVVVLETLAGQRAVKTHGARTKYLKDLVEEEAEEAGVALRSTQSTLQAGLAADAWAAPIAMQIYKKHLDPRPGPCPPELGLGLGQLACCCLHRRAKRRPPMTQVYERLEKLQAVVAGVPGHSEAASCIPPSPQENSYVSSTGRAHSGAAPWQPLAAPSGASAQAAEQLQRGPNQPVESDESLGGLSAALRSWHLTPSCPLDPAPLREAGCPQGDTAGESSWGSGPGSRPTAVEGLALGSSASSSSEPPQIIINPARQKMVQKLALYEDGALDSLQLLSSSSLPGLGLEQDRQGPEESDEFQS

On to `CN(C(=O)CN1CCOCC1)c1ccc2sc3c(-c4cccc5c(=O)cc(N6CC7CCC(C6)O7)oc45)cccc3c2c1` [NU5455], for which at 1 µM the inhibition was 4%.

The values are drawn from publication PMC6934184, “Selective DNA-PKcs inhibition extends the therapeutic index of localized radiotherapy and chemotherapy” (The Journal of Clinical Investigation, 2019).
